From patent publication US12060347B2 (BRISTOL-MYERS SQUIBB COMPANY, priority 2016, dated 2024)

What follows are molecules tested against T1, human PAR4 (Homo sapiens, UniProt Q96RI0) (assay: PAR4 FLIPR assay: antagonism of agonist-peptide-induced calcium mobilization in PAR4-expressing HEK293 cells). Conditions: H-Ala-Phe(4-F)-[…]NH2-induced intracellular calcium mobilization, 11-point curves.
T1 construct: expressed in transfected cells; host or cells: HEK293 PAR4 Clone 1.2A (BMS Arctic ID 383940)
T1 sequence (Q96RI0 18-385): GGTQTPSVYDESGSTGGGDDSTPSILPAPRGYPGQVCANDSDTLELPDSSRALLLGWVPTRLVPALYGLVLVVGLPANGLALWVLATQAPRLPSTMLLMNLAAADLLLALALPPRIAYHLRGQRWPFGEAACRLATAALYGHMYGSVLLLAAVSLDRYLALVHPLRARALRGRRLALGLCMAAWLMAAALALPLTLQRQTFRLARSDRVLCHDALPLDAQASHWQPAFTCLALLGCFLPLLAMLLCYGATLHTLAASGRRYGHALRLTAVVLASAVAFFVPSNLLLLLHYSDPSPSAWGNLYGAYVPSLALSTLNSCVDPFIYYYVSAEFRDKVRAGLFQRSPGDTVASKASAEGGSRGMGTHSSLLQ
Assay type: cell-based

| Structure (SMILES) | IC50 [nM] |
| --- | --- |
| COc1cncc(NC(=O)O[C@H](C)[C@H](C)Oc2cc3sc(-c4cc(Cl)cc5cc(OC)cnc45)nc3c(Cl)c2F)c1 [Example 803, (2R,3S)-3-((4-chloro-2-(6-chloro-3-methoxyquinolin-8-yl)-5-fluorobenzo[d]thiazol-6-yl)oxy)butan-2-yl (5-methoxypyridin-3-yl)carbamate] | 3.5 |
| COc1cnc2c(-c3nc4cc(F)c(OC)cc4s3)cc(C#N)cc2n1 [Example 221, 8-(5-fluoro-6-methoxybenzo[d]thiazol-2-yl)-3-methoxyquinoxaline-6-carbonitrile] | 21 |
| COCc1cnc2c(-c3nc4c(OC)c(F)c(F)cc4s3)cc(C)cc2n1 [Example 269, 5,6-difluoro-4-methoxy-2-(2-(methoxymethyl)-7-methylquinoxalin-5-yl)benzo [d]thiazole] | 3.6 |
| CCOc1cnc2c(-c3nc4c(C)cc(OCCNS(=O)(=O)c5ccc(F)cc5)cc4s3)cc(C)cc2n1 [Example 30, N-(2-((2-(2-ethoxy-7-methylquinoxalin-5-yl)-4-methylbenzo[d]thiazol-6-yl)oxy)ethyl)-4-fluorobenzenesulfonamide] | 4.7 |
| COCc1cnc2c(-c3nc4c(C)c(C)c(OCC(C)O)cc4s3)cc(C)cc2n1 (racemic) [Example 322, 1-((2-(2-(methoxymethyl)-7-methylquinoxalin-5-yl)-4,5-dimethylbenzo[d]thiazol-6-yl)oxy)propan-2-ol] | 5.1 |
| COc1cc(OC)c2nc(-c3cc(C)cc4nc(OC(F)F)cnc34)sc2c1 [Example 55, 2-(2-(difluoromethoxy)-7-methylquinoxalin-5-yl)-4,6-dimethoxybenzo[d]thiazole] | 14 |
| COc1ccc2nc(-c3cc(C)cc4nc(OC(F)F)cnc34)sc2c1 [Example 48, 2-(2-(difluoromethoxy)-7-methylquinoxalin-5-yl)-6-methoxybenzo[d]thiazole] | 2.1 |
| COc1cnc2c(-c3nc4c(C(O)C(C)(C)C)cc(OCCOC(=O)Nc5ccncc5)cc4s3)cc(C)cc2n1 (stereo not shown) [Example 658, 2-((4-(1-hydroxy-2,2-dimethylpropyl)-2-(2-methoxy-7-methylquinoxalin-5-yl)benzo[d]thiazol-6-yl)oxy)ethyl pyridin-4-ylcarbamate] | 3 |
| COCc1cnc2c(-c3nc4c(C)c(C)c(OCCOC(=O)OC)cc4s3)cc(C)cc2n1 [Example 320, 2-((2-(2-(methoxymethyl)-7-methylquinoxalin-5-yl)-4,5-dimethylbenzo[d]thiazol-6-yl)oxy)ethyl methyl carbonate] | 3.4 |
| CNc1cnc2c(-c3nc4cc(F)c(O[C@@H](C)[C@@H](C)OC(=O)Nc5cnc(C)nc5)cc4s3)cc(Cl)cc2c1 [Example 652, (2R,3S)-3-((2-(6-chloro-3-(methylamino)quinolin-8-yl)-5-fluorobenzo[d]thiazol-6-yl)oxy)butan-2-yl (2-methylpyrimidin-5-yl)carbamate] | 11 |
| COc1cc(C(O)c2nccs2)c2nc(-c3cc(C)cc4nc(OC)cnc34)sc2c1 (stereo not shown) [Example 673, (6-methoxy-2-(2-methoxy-7-methylquinoxalin-5-yl)benzo[d]thiazol-4-yl)(thiazol-2-yl)methanol] | 39 |

The next lines start with the values.

| IC50 [nM] | Structure (SMILES) |
| --- | --- |
| 2.5 | COc1cnc2c(-c3nc4c(Cl)c(F)c(OC)cc4s3)cc(CO)cc2n1 [Example 218, (8-(4-chloro-5-fluoro-6-methoxybenzo[d]thiazol-2-yl)-3-methoxyquinoxalin-6-yl)methanol] |
| 0.6 | COc1cnc2c(-c3nc4cc(F)c(OC[C@@H](C)OC(=O)Nc5ccc(C(N)=O)nc5)cc4s3)cc(C)cc2n1 [Example 433, (R)-1-((5-fluoro-2-(2-methoxy-7-methylquinoxalin-5-yl)benzo[d]thiazol-6-yl)oxy)propan-2-yl (6-carbamoylpyridin-3-yl)carbamate] |
| 0.6 | COc1cnc2c(-c3nc4cc(F)c(O[C@@H](C)[C@@H](C)OC(=O)Nc5cnc(OCC(C)(C)O)nc5)cc4s3)cc(C)cc2n1 [Example 575, (2R,3S)-3-((5-fluoro-2-(2-methoxy-7-methylquinoxalin-5-yl)benzo[d]thiazol-6-yl)oxy)butan-2-yl (2-(2-hydroxy-2-methylpropoxy)pyrimidin-5-yl)carbamate] |
| 1.4 | COc1cnc2c(-c3nc4c(C)cc(OCCOC(=O)Nc5cncc(C#N)c5)cc4s3)cc(C)cc2n1 [Example 116, 2-(2-(2-methoxy-7-methylquinoxalin-5-yl)-4-methylbenzo[d]thiazol-6-yloxy)ethyl 5-cyanopyridin-3-ylcarbamate] |
| 4.9 | COc1cnc2c(-c3nc4cc(F)c(O[C@@H](C)[C@@H](C)OC(=O)Nc5cnc(C(=O)N6CCOCC6)nc5)cc4s3)cc(C)cc2n1 [Example 437, (2R,3S)-3-((5-fluoro-2-(2-methoxy-7-methylquinoxalin-5-yl)benzo[d]thiazol-6-yl)oxy)butan-2-yl (2-(morpholine-4-carbonyl)pyrimidin-5-yl)carbamate] |
| 2 | COc1cnc2c(-c3nc4c(Cl)c(F)c(OC[C@@H](C)OC(=O)Nc5cnc(C#N)nc5)cc4s3)cc(C)cc2n1 [Example 400, (R)-1-((4-chloro-5-fluoro-2-(2-methoxy-7-methylquinoxalin-5-yl)benzo[d]thiazol-6-yl)oxy)propan-2-yl (2-cyanopyrimidin-5-yl)carbamate] |
| 4.2 | COc1cnc2c(-c3nc4cc(F)c(O[C@@H](C)[C@@H](C)OC(=O)Nc5cccnc5)cc4s3)cc(C)cc2n1 [Example 423, (2R,3S)-3-((5-fluoro-2-(2-methoxy-7-methylquinoxalin-5-yl)benzo[d]thiazol-6-yl)oxy)butan-2-yl pyridin-3-ylcarbamate] |
| 1 | COc1cnc2c(-c3nc4cc(F)c(O[C@@H](C)[C@@H](C)OC(=O)Nc5cnc(CC(C)(C)O)nc5)cc4s3)cc(C)cc2n1 [Example 577, (2R,3S)-3-((5-fluoro-2-(2-methoxy-7-methylquinoxalin-5-yl)benzo[d]thiazol-6-yl)oxy)butan-2-yl (2-(2-hydroxy-2-methylpropyl)pyrimidin-5-yl)carbamate] |
| 0.9 | COc1cnc2c(-c3nc4cc(F)c(O[C@@H](C)[C@@H](C)OC(=O)Nc5ccc(C(=O)NCC(C)(C)O)nc5)cc4s3)cc(C)cc2n1 [Example 460, (2R,3S)-3-((5-fluoro-2-(2-methoxy-7-methylquinoxalin-5-yl)benzo[d]thiazol-6-yl)oxy)butan-2-yl (6-((2-hydroxy-2-methylpropyl)carbamoyl)pyridin-3-yl)carbamate] |
| 2.4 | CCOc1cnc2c(-c3nc4cc(F)c(O[C@@H](C)[C@@H](C)OC(=O)Nc5cnc(OCCO)nc5)cc4s3)cc(C)cc2n1 [Example 568, (2R,3S)-3-((2-(2-ethoxy-7-methylquinoxalin-5-yl)-5-fluorobenzo[d]thiazol-6-yl)oxy)butan-2-yl (2-(2-hydroxyethoxy)pyrimidin-5-yl)carbamate] |
| 5.5 | COC(=O)c1ccc(NC(=O)OCCOc2cc3sc(-c4cc(C)cc5nc(OC)cnc45)nc3c(Cl)c2F)cn1 [Example 361, methyl 5-(((2-((4-chloro-5-fluoro-2-(2-methoxy-7-methylquinoxalin-5-yl)benzo[d]thiazol-6-yl)oxy)ethoxy)carbonyl)amino)picolinate] |
